The results in this text go back to patent US7514582B2, “2′-substituted 1,1′-biphenyl-2-carboxamides, processes for their preparation, their use as medicaments, and pharmaceutical preparations comprising them” (Sanofi-Aventis Deutschland GmbH, priority 1999, dated 2009).

Usually IC50 stands for the concentration at which inhibition is half-maximal. Read a high IC50 as weaker potency. In general, melting point refers to the temperature, or range, at which the solid turns liquid.

SMILES strings stand for the structures.

The target in one data set is T1, Kv1.5 channels from humans (Homo sapiens, UniProt P22460).
T1 construct: expressed in transfected cells; host or cells: Xenopus laevis oocytes injected with in vitro synthesized RNA
T1 sequence (P22460 whole entry): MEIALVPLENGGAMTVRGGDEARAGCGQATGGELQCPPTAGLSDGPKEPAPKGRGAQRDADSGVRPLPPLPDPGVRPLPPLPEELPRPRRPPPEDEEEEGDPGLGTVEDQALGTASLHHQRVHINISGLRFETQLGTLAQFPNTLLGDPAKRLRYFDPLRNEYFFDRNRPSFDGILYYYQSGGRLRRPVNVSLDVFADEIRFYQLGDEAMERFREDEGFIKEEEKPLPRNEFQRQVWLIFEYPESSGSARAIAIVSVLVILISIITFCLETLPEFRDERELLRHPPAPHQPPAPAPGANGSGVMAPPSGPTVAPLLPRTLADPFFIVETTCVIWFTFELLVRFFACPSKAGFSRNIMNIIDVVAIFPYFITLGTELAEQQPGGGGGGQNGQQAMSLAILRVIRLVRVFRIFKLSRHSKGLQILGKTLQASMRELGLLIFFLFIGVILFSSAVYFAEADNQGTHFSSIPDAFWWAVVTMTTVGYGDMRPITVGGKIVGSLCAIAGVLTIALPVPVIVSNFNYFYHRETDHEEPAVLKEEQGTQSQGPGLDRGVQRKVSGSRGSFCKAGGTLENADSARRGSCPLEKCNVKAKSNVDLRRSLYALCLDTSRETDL
Put plainly: Kv1.5 currents in Xenopus oocytes, two-microelectrode voltage clamp. Type of data set: cell-based. As for the experimental part:
Kv1.5 channels from humans were expressed in Xenopus oocytes. For this, oocytes from Xenopus laevis were first isolated and defolliculated. RNA encoding Kv1.5 synthesized in vitro was then injected into these oocytes. After Kv1.5 protein expression for 1-7days, Kv1.5 currents were measured on the oocytes using the two-microelectrode voltage clamp technique. The Kv1.5 channels were in this case as a rule activated using voltage jumps to 0 mV and 40 mV lasting 500 ms. The bath was rinsed with a solution of the following composition: NaCl 96 mM, KCl 2 mM, CaCl2 1.8 mM, MgCl2 1 mM, HEPES 5 mM (titrated with NaOH to pH 7.4). These experiments were carried out at room temperature. The following were employed for data acquisition and analysis: Genedamp amplifier (Axon Instruments, Foster City, USA) and MacLab D/A converter and software (AD Instruments, Castle Hill, Australia). The substances according to the invention were tested by adding them in different concentrations to the bath solution. The effects of the substances were calculated as the percentage inhibition of the Kv1.5 control current which was obtained when no substance was added to the solution. The data were then extrapolated using the Hill equation in order to determine the inhibitory concentration IC50 for the respective substances.
`CC(C)C[C@H](NC(=O)c1ccccc1-c1ccccc1CNC(=O)OCc1ccccc1)C(=O)Nc1ccccc1` [13 b] displayed an IC50 of approximately 3000 nM.
`CC(C)C[C@H](NC(=O)c1ccccc1-c1ccccc1CNC(=O)OCc1ccccc1)C(=O)NCc1ccccc1` [13 c] had an IC50 of 1400 nM.
As to `CC(C)C[C@H](NC(=O)c1ccccc1-c1ccccc1CNC(=O)OCc1ccccc1)C(=O)NCC(F)(F)F` [13 d], the half-maximal inhibitory concentration (IC50) amounted to 500 nM.
Compound `CC(C)CCNC(=O)[C@H](CC(C)C)NC(=O)c1ccccc1-c1ccccc1CNC(=O)OCc1ccccc1` [13 e] had an IC50 of 2800 nM. This IC50 lies about 5.6-fold higher than the previous one.
On to `COc1ccc(C(=O)NCc2ccccc2-c2ccccc2C(=O)N[C@@H](CC(C)C)C(=O)NCC(F)(F)F)cc1` [13 f], for which 3400 nM corresponded to half-maximal inhibition (IC50). The IC50 values of the last two compounds are within 1.5-fold of each other.
With `CC(C)C[C@H](NC(=O)c1ccccc1-c1ccccc1CNC(=O)CCc1ccccc1)C(=O)NCC(F)(F)F` [13 g], 1100 nM corresponded to half-maximal inhibition (IC50).
In turn, `COc1ccc(S(=O)(=O)NCc2ccccc2-c2ccccc2C(=O)N[C@@H](CC(C)C)C(=O)NCC(F)(F)F)cc1` [13 h] showed an IC50 of 1400 nM.
Take `CC(C)NC(=O)C(Cc1ccccn1)NC(=O)c1ccccc1-c1ccccc1CNC(=O)OCc1ccccc1` (stereo not drawn) [13 i]: the IC50 is 1200 nM.
In turn, `Cc1ccccc1CCC(=O)NCc1ccccc1-c1ccccc1C(=O)NCc1ccc(F)cc1F` [14 a] yielded an IC50 of 3600 nM.
The same measure, in the same setting: as for `O=C(CCc1ccc(F)cc1)NCc1ccccc1-c1ccccc1C(=O)NCc1ccc(F)cc1F` [14 b], the figure is 2700 nM.
`O=C(CCc1ccc(O)cc1)NCc1ccccc1-c1ccccc1C(=O)NCc1ccc(F)cc1F` [14 d]: the IC50 worked out at 2000 nM. The IC50 values of the last two compounds are within 1.5-fold of each other.
As to `COc1ccc(CCC(=O)NCc2ccccc2-c2ccccc2C(=O)NCc2ccc(F)cc2F)cc1` [14 e], the IC50 came out at 800 nM.
As for `O=C(CCc1ccc(F)c(F)c1)NCc1ccccc1-c1ccccc1C(=O)NCc1ccc(F)cc1F` [14 f], the IC50 is 2500 nM.
As to `COc1ccc(-c2ccccc2CNC(=O)OC(C)(C)C)c(C(=O)NCCC(C)C)c1` [15 b], the IC50 worked out at 3100 nM.
Still for that read-out and setting: as for `CC(C)CCNC(=O)c1cc(O)ccc1-c1ccccc1CNC(=O)OCc1ccccc1` [16 b], the figure is 5200 nM; as for `CC(C)CCNC(=O)c1ccccc1-c1ccccc1[C@@H](C)NC(=O)OCc1ccccc1` [17 c], 2100 nM; as for `CC(C)CCNC(=O)c1ccccc1-c1ccccc1[C@H](C)NC(=O)OCc1ccccc1` [17 d], 1300 nM.
Take `CC(C)CCNC(=O)c1ccccc1-c1ccccc1[C@H](C)NC(=O)O[C@@H](C)c1ccccc1` [17 e]: half-maximal inhibition (IC50) required 1800 nM.
For the compound `CC(C)CCC(=O)NCc1ccccc1-c1ccccc1C(=O)NCC1CC1` [18 a], the IC50 was 7200 nM. This IC50 is about 4-fold higher than that of the compound before.
In turn, `COCCCNC(=O)c1ccccc1-c1ccccc1CNC(=O)OCc1ccccc1` [18 aa] gave an IC50 of 400 nM.
In turn, `COc1ccc(CC(=O)NCc2ccccc2-c2ccccc2C(=O)NC(C)CC(C)C)cc1` (stereo not drawn) [18 ab] yielded an IC50 of 1100 nM.
With `CC[C@@H](C)OC(=O)NCc1ccccc1-c1ccccc1C(=O)NCc1cccc(C)n1` [18 ac], the IC50 came out at 10000 nM.
`COc1ccc(CC(=O)NCc2ccccc2-c2ccccc2C(=O)NCc2nc3ccccc3[nH]2)cc1` [18 af] registered an IC50 of 5800 nM.
Turning to `O=C(NCc1ccccc1-c1ccccc1C(=O)NCc1nc2ccccc2[nH]1)OCc1ccccc1` [18 ah], 2100 nM corresponded to half-maximal inhibition (IC50).
With `CN(C)c1ccc(CNC(=O)c2ccccc2-c2ccccc2CNC(=O)OCc2ccccc2)cc1` [18 ai], the IC50 was found to be 6600 nM. Against the preceding compound, the IC50 is about 3.1-fold higher.
Compound `C[C@H](CC(=O)NCc1ccccc1-c1ccccc1C(=O)NCC1CC1)c1ccccc1` [18 b] showed an IC50 of 400 nM. Compared with the last compound, the IC50 is about 16-fold lower.
Consider `CC(C)CCNC(=O)c1ccccc1-c1ccccc1CNC(=O)COc1ccccc1` [18 c], for which the IC50 was found to be 4200 nM.
Consider `CC(C)CCNC(=O)c1ccccc1-c1ccccc1CNC(=O)C[C@@H](C)c1ccccc1` [18 d], for which the IC50 was 400 nM. This IC50 lies about 10-fold lower than the previous one.
The compound `CC(C)CCC(=O)NCc1ccccc1-c1ccccc1C(=O)NCc1ccc(F)cc1F` [18 e] displayed an IC50 of 1700 nM.
Same read-out and setting: as for `C[C@H](CC(=O)NCc1ccccc1-c1ccccc1C(=O)NCc1ccncc1)c1ccccc1` [18 f], the figure is 1300 nM; as for `CCC(C)CC(=O)NCc1ccccc1-c1ccccc1C(=O)NCc1ccccn1` (stereo not drawn) [18 g], 3900 nM; as for `C[C@H](CC(=O)NCc1ccccc1-c1ccccc1C(=O)NCCc1ccncc1)c1ccccc1` [18 h], 800 nM.
Consider `C[C@H](CC(=O)NCc1ccccc1-c1ccccc1C(=O)NCCc1cccnc1)c1ccccc1` [18 i], for which the IC50 came out at 400 nM. Against the preceding compound, the IC50 is about 2-fold lower.
Compound `Cc1cccc(CNC(=O)c2ccccc2-c2ccccc2CNC(=O)C[C@@H](C)c2ccc([N+](=O)[O-])cc2)n1` [18 j] displayed an IC50 of 700 nM.
As to `O=C(Cc1ccc(F)cc1)NCc1ccccc1-c1ccccc1C(=O)Nc1ccc(F)cc1` [18 k], the IC50 was found to be 3000 nM.
As to `CCCC(C)OC(=O)NCc1ccccc1-c1ccccc1C(=O)NCC1CC1` (stereo not drawn) [18 m], 2100 nM corresponded to half-maximal inhibition (IC50).
With `C[C@H](O)CNC(=O)c1ccccc1-c1ccccc1CNC(=O)O[C@@H](C)c1ccccc1` [18 n], the IC50 turned out to be 400 nM.
Turning to `CC(C)CCNC(=O)c1ccccc1-c1ccccc1CNC(=O)OCC1CC1` [18 o], the IC50 is 3600 nM.
The same measure, in the same setting: as for `O=C(NCc1ccccc1-c1ccccc1C(=O)NCc1cccnc1)OCCc1ccccc1` [18 q], the figure is 3200 nM; as for `C[C@H](OC(=O)NCc1ccccc1-c1ccccc1C(=O)NCCc1cccnc1)c1ccccc1` [18 s], 900 nM.
Compound `O=C(Cc1ccc(F)cc1)NCc1ccccc1-c1ccccc1C(=O)NCc1ccc(F)cc1F` [18 u] came in with an IC50 of 1100 nM.
The compound `O=C(Cc1ccc(O)cc1)NCc1ccccc1-c1ccccc1C(=O)NCc1ccc(F)cc1F` [18 w] displayed an IC50 of 5400 nM.
Compound `COc1ccc(CC(=O)NCc2cccc(C)c2-c2c(C)cccc2C(=O)NCCC(C)C)cc1` [18 x] yielded a concentration for half-maximal inhibition (IC50) of 4600 nM.
In the case of `COc1ccc(CC(=O)NCc2ccccc2-c2ccccc2C(=O)NCCCOC(C)C)cc1` [18 y], it took 1900 nM to reach half-maximal inhibition (IC50).
The compound `COc1ccc(CC(=O)NCc2ccccc2-c2ccccc2C(=O)NC2CCCC2)cc1` [18 z] yielded an IC50 of 1200 nM.

System in the next data set: not given
Test: not given
`CC(C)CCNC(=O)c1ccccc1-c1ccccc1CNC(=O)OCc1ccccc1` [Example 2 b, 2′-(Benzyloxycarbonylaminomethyl)biphenyl-2-carboxylic acid (3-methylbutyl)amide] came in with a melting point of 112 °C.
`O=C(NCCc1ccccc1)c1ccccc1-c1ccccc1CNS(=O)(=O)c1cccc(C(F)(F)F)c1` [Example 3 a, 2′-(3-Trifluoromethylphenylsulfonylaminomethyl)biphenyl-2-carboxylic acid phenethylamide] had a melting point of 145 °C.
For `CC(=O)c1ccc(S(=O)(=O)NCc2ccccc2-c2ccccc2C(=O)NCCc2ccccc2)cc1` [Example 3 b, 2′-(4-Acetylphenylsulfonylaminomethyl)biphenyl-2-carboxylic acid phenethylamide], the melting point came out at 145 °C.
`O=C(NCCc1ccccc1)c1ccccc1-c1ccccc1CNS(=O)(=O)c1cccc([N+](=O)[O-])c1` [Example 3 c, 2′-(3-Nitrophenylsulfonylaminomethyl)biphenyl-2-carboxylic acid phenethylamide] had a melting point of 145 °C.
Still for that read-out and setting: to `O=C(NCCc1ccccc1)c1ccccc1-c1ccccc1CNS(=O)(=O)c1ccccc1` [Example 3 d, 2′-(Phenylsulfonylaminomethyl)biphenyl-2-carboxylic acid phenethylamide] belongs 154 °C.
Regarding `O=C(NCCc1ccccc1)c1ccccc1-c1ccccc1CNS(=O)(=O)c1cccc(F)c1` [Example 3 e, 2′-(3-Fluorophenylsulfonylaminomethyl)biphenyl-2-carboxylic acid phenethylamide], the melting point amounted to 153 °C.
Regarding `CCc1ccc(S(=O)(=O)NCc2ccccc2-c2ccccc2C(=O)NCCc2ccccc2)cc1` [Example 3 f, 2′-(4-Ethylphenylsulfonylaminomethyl)biphenyl-2-carboxylic acid phenethylamide], the melting point was 163 °C.
In turn, `O=C(NCc1ccccc1)c1ccccc1-c1ccccc1CNS(=O)(=O)c1cccc(C(F)(F)F)c1` [Example 3 g, 2′-(3-Trifluoromethylphenylsulfonylaminomethyl)biphenyl-2-carboxylic acid benzylamide] registered a melting point of 126 °C.
Compound `CC(=O)c1cccc(S(=O)(=O)NCc2ccccc2-c2ccccc2C(=O)NCc2ccccc2)c1` [Example 3 h, 2′-(3-Acetylphenylsulfonylaminomethyl)biphenyl-2-carboxylic acid benzylamide] showed a melting point of 182 °C.
`O=C(NCc1ccccc1)c1ccccc1-c1ccccc1CNS(=O)(=O)c1cccc([N+](=O)[O-])c1` [Example 3 i, 2′-(3-Nitrophenylsulfonylaminomethyl)biphenyl-2-carboxylic acid benzylamide] displayed a melting point of 175 °C.
With `O=C(NCc1ccccc1)c1ccccc1-c1ccccc1CNS(=O)(=O)c1ccccc1` [Example 3 j, 2′-(3-Phenylsulfonylaminomethyl)biphenyl-2-carboxylic acid benzylamide], the melting point is 162 °C.
In turn, `O=C(NCc1ccccc1)c1ccccc1-c1ccccc1CNS(=O)(=O)c1cccc(F)c1` [Example 3 k, 2′-(3-Fluorophenylsulfonylaminomethyl)biphenyl-2-carboxylic acid benzylamide] displayed a melting point of 147 °C.
